Source: patent publication US5852049A, “Aromatic ethers derived from indoles which are useful as medicaments” (Pierre Fabre Medicament, priority 1994, dated 1998)
Structures can show the parent of a compound that is named as a salt. Where two headings read alike, the source gives them in different places.

What was measured:
human 5HT1Dα = biological target: T1, human 5HT1Dα (Homo sapiens, UniProt P28221); assay: binding to human 5HT1Dα receptor
T1 construct: expressed in transfected cells; host or cells: Cos-7 and CHO-K1
Description: (§1) The study of the binding of the derivatives of the present invention with the human 5HT1Dα, 5HT1Dβ and 5HT1A receptors was carried out according to the method described by P. Pauwels and C. Palmier (Neuropharmacology, 33, 67, 1994).
(§2) The incubation media for these binding measurements comprise 0.4 ml of cell membrane preparation, 0.05 ml of a tritiated ligand [[3H]-5CT (final concentration: 2 nM) for the 5HT1Dα and 5HT1Dβ receptors and [3H]-8OH-DPAT (final concentration: 1 nM) for the 5HT1A receptor] and 0.05 ml of the molecule to be tested (final concentrations: 0.1 to 1000 nM) or 10 μM (final concentration) of serotonin (5HT1Dα and 5HT1Dβ) or 1 μM (final concentration)of spiroxatrine (5HT1A).

human 5HT1Dβ = biological target: T2, human 5HT1Dβ (Homo sapiens, UniProt P28222); assay: binding to human 5HT1Dβ receptor
T2 construct: expressed in transfected cells; host or cells: Cos-7 and CHO-K1
Description: as §1, §2

human 5HT1A = biological target: T3, human 5HT1A (Homo sapiens, UniProt P08908); assay: binding to human 5HT1A receptor (HeLa HA7 cell line)
T3 construct: expressed in transfected cells; host or cells: HeLa HA7
T3 sequence (P08908 1-422): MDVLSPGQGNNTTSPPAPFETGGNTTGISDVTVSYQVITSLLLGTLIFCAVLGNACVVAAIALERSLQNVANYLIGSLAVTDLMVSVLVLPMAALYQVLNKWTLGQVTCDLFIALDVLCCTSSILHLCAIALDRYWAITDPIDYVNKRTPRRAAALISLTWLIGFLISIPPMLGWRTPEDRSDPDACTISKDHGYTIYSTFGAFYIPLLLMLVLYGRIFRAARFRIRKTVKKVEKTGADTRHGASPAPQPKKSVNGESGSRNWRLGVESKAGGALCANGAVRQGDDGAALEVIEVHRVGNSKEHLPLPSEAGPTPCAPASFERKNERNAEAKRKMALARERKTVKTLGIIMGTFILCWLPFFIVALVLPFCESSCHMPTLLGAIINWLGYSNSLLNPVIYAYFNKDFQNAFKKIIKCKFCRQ
Description: The HeLa HA7 cell line expressing the human 5HT1A receptor was obtained from Tulco (Duke Univ., Durham, N.C., USA) and cultured according to the method of Fargin et al., J. Biol. Chem. 264, 14848 (1989).
Palmier (Neuropharmacology, 33, 67, 1994).

rabbit saphenous vein = assay: contraction of the rabbit saphenous vein rings mediated by the 5HT1-like receptors; assay type: cell-based; conditions: Oryctolagus cuniculus; for Emax: read-out: Relative Emax; for EC50: read-out: pD2 (converted)
Description: The derivatives of the present invention are, in addition, capable, like serotonin, of inducing the contraction of the rabbit saphenous vein rings mediated by the "5HT1-like " receptors.
The technique used was adapted from Van Heuven-Nolsen D. et al., Eur. J. Pharmacol. 191, 375-382 (1990) and from Martin G. R. and Mc Lennan S. J., Naunyn-Schmiedeberg's Arch. Pharmacol. 342, 111-119 (1990) and therefore makes it possible to determine a pD2 value and an Emax relative to serotonin for each product tested.

[1] = human receptor, [3H]-5CT 2 nM, read-out: Ki 5HT1Dβ
[2] = human receptor, HeLa HA7, [3H]-8OH-DPAT 1 nM, read-out: Ki 5HT1A
[3] = contraction of the rabbit saphenous vein
[4] = Emax of the compound relative to Emax of serotonin

T1 sequence (P28221 whole entry): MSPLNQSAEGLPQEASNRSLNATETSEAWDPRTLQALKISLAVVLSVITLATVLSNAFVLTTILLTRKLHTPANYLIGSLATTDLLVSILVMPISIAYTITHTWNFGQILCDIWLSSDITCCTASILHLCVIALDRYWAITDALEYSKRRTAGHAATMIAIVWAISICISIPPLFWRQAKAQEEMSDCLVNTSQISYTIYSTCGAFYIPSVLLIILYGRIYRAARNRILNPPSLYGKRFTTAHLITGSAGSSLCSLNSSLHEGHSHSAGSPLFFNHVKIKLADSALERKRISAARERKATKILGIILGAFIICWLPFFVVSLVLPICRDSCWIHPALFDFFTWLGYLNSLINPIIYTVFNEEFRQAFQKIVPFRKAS
T2 sequence (P28222 whole entry): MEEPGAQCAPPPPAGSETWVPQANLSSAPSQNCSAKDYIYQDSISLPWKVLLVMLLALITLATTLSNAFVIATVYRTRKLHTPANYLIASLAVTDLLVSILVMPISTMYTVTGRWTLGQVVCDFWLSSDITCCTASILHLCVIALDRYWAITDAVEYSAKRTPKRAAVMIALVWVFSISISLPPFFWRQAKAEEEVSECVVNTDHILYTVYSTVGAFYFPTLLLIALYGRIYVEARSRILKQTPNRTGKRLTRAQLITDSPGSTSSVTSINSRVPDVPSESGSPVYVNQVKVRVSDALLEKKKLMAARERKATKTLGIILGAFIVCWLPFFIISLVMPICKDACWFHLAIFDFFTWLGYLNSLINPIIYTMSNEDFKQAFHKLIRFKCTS

| Structure (SMILES) | Ki (human 5HT1Dα) | Emax (rabbit saphenous vein) | EC50 (rabbit saphenous vein; [3]) | Ki (human 5HT1Dβ) | Ki (human 5HT1A) | further results |
| --- | --- | --- | --- | --- | --- | --- |
| N#CCCCCCOc1ccc2[nH]cc(CCN)c2c1 [Example 17, 6-[3-(2-Aminoethyl)-1H-indol-5-yloxy]hexanitrile hydrochloride] | 2.2 nM | – | – | – | – | Ki (human 5HT1Dβ; [1]): 2.6 nM; Ki (human 5HT1A; [2]): 24.3 nM |
| CCOC(=O)CCCCOc1ccc2[nH]cc(CCN)c2c1 [Example 13, Ethyl 5-[3-(2-aminoethyl)-1H-indol-5-yloxy]pentanoate hydrochloride] | – | 120% | 309 nM | – | – | – |
| CCOC(=O)CCCOc1ccc2[nH]cc(CCN)c2c1 [Example 12, Ethyl 4-[3-(2-aminoethyl)-1H-indol-5-yloxy)-butyrate hydrochloride] | – | 80% | 692 nM | – | – | – |
| CS(=O)(=O)NCCCCCCOc1ccc2[nH]cc(CCN)c2c1 [Example 19, N-{6-[3-(2-Aminoethyl)-1H-indol-5-yloxy]hexyl}methanesulfonamide hydrochloride] | 1.1 nM | 100% | – | 0.7 nM | 11.5 nM | EC50 (rabbit saphenous vein): 15.8 nM |
| CC(C)OC(=O)CCCCCOc1ccc2[nH]cc(CCN)c2c1 [Example 16, Isopropyl 6-[3-(2-aminoethyl)-1H-indol-5-yloxy]hexanoate hydrochloride] | 1.5 nM | 136% | 240 nM | 0.7 nM | 9 nM | – |
| CNS(=O)(=O)CCc1ccc2[nH]cc(C3CCN(C)CC3)c2c1 [Naratriptan, reference compound] | – | – | 2880 nM | – | – | Ki (human 5HT1Dα; human receptor, [3H]-5CT 2 nM, read-out: Ki 5HT1Dα): 1.6 nM; Ki (human 5HT1Dβ; [1]): 2 nM; Ki (human 5HT1A; [2]): 46 nM; Emax (rabbit saphenous vein; [4]): 100% |
| CNS(=O)(=O)Cc1ccc2[nH]cc(CCN(C)C)c2c1 [Sumatriptan, reference compound] | – | – | 1780 nM | – | – | Emax (rabbit saphenous vein; [4]): 126% |
| NCCCCCCOc1ccc2[nH]cc(CCN)c2c1 [Example 18, 6-[3-(2-Aminoethyl)-1H-indol-5-yloxy]hexylamine hydrochloride] | 2.4 nM | – | – | 2 nM | 78.6 nM | – |
| CCNC(=O)CCCCCOc1ccc2[nH]cc(CCN)c2c1 [Example 20, 6-[3-(2-Aminoethyl)-1H-indol-5-yloxy]-N-ethylhexanamide hydrochloride] | – | – | – | – | – | Ki (human 5HT1Dα; read-out: Ki 5HT1Dα, human receptor, [3H]-5CT 2 nM): 2 nM; Ki (human 5HT1Dβ; read-out: Ki 5HT1Dβ, human receptor, [3H]-5CT 2 nM): 1.1 nM; Ki (human 5HT1A; read-out: Ki 5HT1A, human receptor, HeLa HA7, [3H]-8OH-DPAT 1 nM): 46.5 nM |
| CC(=O)OCCCCOc1ccc2[nH]cc(CCN)c2c1 [Example 23, 4-[3-(2-Aminoethyl)-1H-indol-5-yloxy]butylacetate hydrochloride] | 0.9 nM | – | – | 0.4 nM | 40 nM | – |
